Assays:
[1] = MTT cytotoxicity assay, GES-1 normal cells; type: cell-based, human; conditions: human
Source text: (§1) In the study, five cancer cell lines (human colon cancer cells (HT-29), gastric cancer cells (BGC-823), cervical cancer cells (Hela), human breast cancer cells (MCF-7), and human lung cancer cells A549)), and two normal cell lines (human gastric epithelial cells (GES-1) and human ovarian epithelial cells (IOSE144)) were used for the evaluation of biological activity. IOSE144 cells were donated by Professor Piao Huri of Yanbian University, all other cells were purchased from the American Type Culture Collection (ATCC, Manassas, VA, USA). Cells were cultured in Dulbecco’s Modified Eagle’s Medium (DMEM), supplemented with 10% heat-inactivated fetal bovine serum (FBS), 1% 100 μg/mL penicillin and 100 μg/mL streptomycin in a humidified atmosphere containing 5% CO2 at 37 °C. Cell viability was measured using the MTT assay. Cells were seeded in 96 well microtiter plates in a volume of 100 μL medium. All compounds tested were dissolved and further diluted in DMSO. After overnight incubation, cells were treated with different test concentrations or carrier solvents alone in a final volume of 100 μL with five replicates each. […] Cells were treated with compound (80, 40, 20, 10, 5 μM) for 48 h. Then, 10 μL of MTT (5 mg/mL) was added to each well and the cells were incubated at 37 °C in the dark for 4 h. Supernatants were removed and formazan crystals were dissolved in DMSO (100 μL/well). The solution was agitated for 10 min, and the absorbance was measured at 490 nm using microplate reader (imark, BIO-RAD, Hercules, CA, USA) to calculate the 50% inhibitory concentration (IC50). Ginsenoside-Rg3, panaxadiol sapogenin (PD), AD-2 (25-OH-PPD) and AD-1 (25-OCH3-PPD) were used as standard reference compounds.

[2] = tested on: cervical cancer cells (Hela); experiment: MTT cytotoxicity assay, Hela; type: cell-based, human; conditions: Homo sapiens, 48 h
Source text: as §1

[3] = tested on: gastric cancer cells (BGC-823); experiment: MTT cytotoxicity assay, BGC-823; type: cell-based, human; conditions: Homo sapiens; BGC-823, MTT, 48 h
Source text: as §1

[4] = MTT cytotoxicity assay, IOSE144 normal cells; type: cell-based, human; conditions: human
Source text: as §1

[5] = tested on: five cancer cell lines (HT-29, BGC-823, Hela, MCF-7, A549); experiment: Cytotoxic activity on five cancer cell lines (overall statement); type: cell-based, human; conditions: MTT
Source text: as §1

[6] = tested on: human lung cancer cells A549; experiment: MTT cytotoxicity assay, A549; type: cell-based; conditions: Homo sapiens, 48 h
Source text: as §1

[7] = tested on: human colon cancer cells (HT-29); experiment: MTT cytotoxicity assay, HT-29; type: cell-based; conditions: Homo sapiens; HT-29, MTT, 48 h
Source text: as §1

[8] = tested on: human breast cancer cells (MCF-7); experiment: MTT cytotoxicity assay, MCF-7; type: cell-based; conditions: Homo sapiens, MCF7; MCF-7, MTT, 48 h
Source text: as §1

[9] = GES-1 gastric epithelial cells (normal cell line), GES-1 normal cells, MTT, 48 h, read-out: IC50
[10] = IOSE144 ovarian epithelial cells (normal cell line), IOSE144 normal cells, MTT, 48 h, read-out: IC50

SMILES | IC50 at 48 h [1] | melting point | IC50 [2] | IC50 [3] | IC50 at 48 h [4] | anticancer activity (in words) [5] | IC50 [6] | IC50 [7] | IC50 [8] | IC50 at 48 h [1, 9] | IC50 at 48 h [4, 10]
CC(=O)Oc1ccccc1C(=O)OC1CCC2(C)C(CCC3(C)C2CC(OC(=O)c2ccccc2O)C2C(C4(C)CCCC(C)(C)O4)CCC23C)C1(C)C [Compound 1b, 20(R)-Pananxadiol-3β-yl-2′-acetylbenzoate-12β-yl-2′-hydroxybenzoate] | > 100 µM | 198 to 200 °C | 11.3 ± 0.14 µM | 9.65 ± 0.61 µM | > 100 µM | strong anticancer activity | 13.26 ± 0.11 µM | 12.2 ± 0.28 µM | 7.65 ± 0.29 µM |  | 
COC(C)(C)CCCC(C)(O)C1CCC2(C)C1C(O)CC1C3(C)CCC(OC(=O)c4ccccc4O)C(C)(C)C3CCC12C [Compound 4a, 20(R)-25-Methoxydammarane-12β,20-diol-3β-yl-2′-hydroxybenzoate] | > 100 µM | 246 to 248 °C | 19.26 ± 0.14 µM | 13.2 ± 0.18 µM | > 100 µM |  | 35.6 ± 0.56 µM | 50.6 ± 1.03 µM | 11.1 ± 0.35 µM |  | 
CC(C)(O)CCCC(C)(O)C1CCC2(C)C1C(O)CC1C3(C)CCC(OC(=O)c4ccccc4O)C(C)(C)C3CCC12C [Compound 9a, 20(R)-Dammarane-12β,20,25-triol-3β-yl-2′-hydroxybenzoate] | > 100 µM | 295 to 297 °C | 37.3 ± 0.39 µM | 26.52 ± 0.26 µM | > 100 µM |  | 35.9 ± 0.41 µM | 11.5 ± 0.23 µM | 50.44 ± 0.11 µM |  | 
CC(=O)Oc1ccccc1C(=O)OC1CC2C3(C)CCC(OC(=O)c4ccccc4OC(C)=O)C(C)(C)C3CCC2(C)C2(C)CCC(C3(C)CCCC(C)(C)O3)C12 [Compound 2b, 20(R)-Pananxadiol-3β, 12β-di-yl-2′-acetylbenzoate] | > 100 µM | 238 to 240 °C | 16.2 ± 0.34 µM | 8.12 ± 0.25 µM | > 100 µM | strong anticancer activity | 15.47 ± 0.13 µM | 5.27 ± 0.14 µM | 10.25 ± 0.05 µM |  | 
CC(C)(CCCC(C)(O)C1CCC2(C)C1C(O)CC1C3(C)CCC(O)C(C)(C)C3CCC12C)OC(=O)c1ccccc1O [Compound 8a, 20(R)-Dammarane-3β,12β,20-triol-25-yl-2′-hydroxybenzoate] | > 100 µM | 223 to 225 °C | > 100 µM | > 100 µM | > 100 µM |  | 47.1 ± 0.59 µM | > 100 µM | 50.7 ± 1.34 µM |  | 
CC1(C)CCC[C@](C)(C2CC[C@]3(C)C2[C@H](OC(=O)c2ccccc2O)CC2[C@@]4(C)CC[C@H](OC(=O)c5ccccc5O)C(C)(C)C4CC[C@]23C)O1 (stereo partly drawn) [Compound 10a, 20(R)-Pananxadiol-3β,12β-di-yl-2′-hydroxybenzoate] | > 100 µM | 232 to 234 °C | > 100 µM | > 100 µM | > 100 µM |  | 29.5 ± 0.61 µM | 30.25 ± 0.02 µM | 41.4 ± 0.48 µM |  | 
CC(C)(CCCC(C)(O)C1CCC2(C)C1C(O)CC1C3(C)CCC(OC(=O)c4ccccc4O)C(C)(C)C3CCC12C)OC(=O)c1ccccc1O [Compound 6a, 20(R)-Dammarane-12β, 20-diol-3β, 25-di-yl-2′-hydroxybenzoate] | > 100 µM | 219 to 221 °C | 20.4 ± 0.36 µM | > 100 µM | > 100 µM |  | 19.4 ± 0.59 µM | > 100 µM | > 100 µM |  | 
CC(C)(O)CCCC(C)(O)C1CCC2(C)C1C(OC(=O)c1ccccc1O)CC1C3(C)CCC(O)C(C)(C)C3CCC12C [Compound 5a, 20(R)-Dammarane-3β,20,25-triol-12β-yl-2′-hydroxybenzoate] | > 100 µM | 258 to 260 °C | 21.6 ± 1.08 µM | 60.5 ± 1.11 µM | > 100 µM |  | 22.5 ± 0.46 µM | 18.4 ± 0.47 µM | 18.5 ± 0.23 µM |  | 
CC1(C)CCC[C@](C)([C@H]2CC[C@]3(C)[C@@H]2[C@H](O)C[C@@H]2[C@@]4(C)CC[C@H](O)C(C)(C)[C@@H]4CC[C@]23C)O1 [PD, panaxadiol, reference compound] |  |  | 72.15 ± 0.52 µM | 80.13 ± 0.36 µM |  |  | 43.1 ± 1.05 µM | 73.4 ± 1.84 µM | 62 ± 1.63 µM | > 100 µM | > 100 µM
CC(=O)Oc1ccccc1C(=O)OC1CC2C3(C)CCC(O)C(C)(C)C3CCC2(C)C2(C)CCC(C3(C)CCCC(C)(C)O3)C12 [Compound 5b, 20(R)-Pananxadiol-3β-hydroxy-12β-yl-2′-acetylbenzoate] | > 100 µM | 226 to 228 °C | 18.65 ± 0.13 µM | 26.24 ± 0.02 µM | > 100 µM |  | 14.1 ± 0.52 µM | 20.1 ± 0.74 µM | 24.36 ± 0.15 µM |  | 
CC1(C)CCC[C@](C)(C2CC[C@]3(C)C2[C@H](O)CC2[C@@]4(C)CC[C@H](OC(=O)c5ccccc5O)C(C)(C)C4CC[C@]23C)O1 (stereo partly drawn) [Compound 11a, 20(R)-Pananxadiol-12β-hydroxy-3β-yl-2′-hydroxybenzoate] | > 100 µM | 222 to 224 °C | > 100 µM | 41.9 ± 0.43 µM | > 100 µM |  | 23.8 ± 1.36 µM | 26.5 ± 0.56 µM | 11.5 ± 1.47 µM |  | 
CC1(C)CCC[C@](C)(C2CC[C@]3(C)C2[C@H](OC(=O)c2ccccc2O)CC2[C@@]4(C)CC[C@H](O)C(C)(C)C4CC[C@]23C)O1 (stereo partly drawn) [Compound 12a, 20(R)-Pananxadiol-3β-hydroxy-12β-yl-2′-hydroxybenzoate] | > 100 µM | 248 to 250 °C | > 100 µM | > 100 µM | > 100 µM |  | 50.2 ± 0.94 µM | > 100 µM | 60.1 ± 2.45 µM |  | 
CC(=O)OC1CCC2(C)C(CCC3(C)C2CC(OC(=O)c2ccccc2O)C2C(C4(C)CCCC(C)(C)O4)CCC23C)C1(C)C [Compound 4b, 20(R)-Pananxadiol-3β-o-acetyl-12β-yl-2′-hydroxybenzoate] | > 100 µM | 238 to 240 °C | 48.75 ± 0.37 µM | 50.26 ± 0.39 µM | > 100 µM |  | 25.4 ± 0.77 µM | 36.12 ± 0.28 µM | 39.4 ± 0.68 µM |  | 
CC(=O)Oc1ccccc1C(=O)O [Acetyl-salicylic acid, reference compound] |  |  | > 100 µM | 87.67 ± 0.78 µM |  |  | 90.5 ± 2.13 µM | 70.26 ± 0.38 µM | 57.1 ± 1.7 µM | > 100 µM | > 100 µM
COC(C)(C)CCCC(C)(O)C1CCC2(C)C1C(OC(=O)c1ccccc1O)CC1C3(C)CCC(OC(=O)c4ccccc4O)C(C)(C)C3CCC12C [Compound 2a, 20(R)-25-Methoxydammarane-20-hydroxy-3β,12β-di-yl-2′-hydroxybenzoate] | > 100 µM | 200 to 202 °C | 16.5 ± 0.23 µM | 40.9 ± 0.45 µM | > 100 µM |  | 26.45 ± 0.14 µM | 32.58 ± 0.23 µM | 25.7 ± 0.43 µM |  | 
O=C(O)c1ccccc1O [Salicylic acid, reference compound] |  |  | > 100 µM | > 100 µM |  |  | > 100 µM | 83.2 ± 1.65 µM | > 100 µM | > 100 µM | > 100 µM
CC(=O)OC1CC2C3(C)CCC(OC(=O)c4ccccc4O)C(C)(C)C3CCC2(C)C2(C)CCC(C(C)(O)CCCC(C)(C)O)C12 [Compound 6b, 20(R)-Dammarane-20,25-diol-12β-o-acetyl-3β-yl-2′-hydroxybenzoate] | > 100 µM | 278 to 280 °C | 48.3 ± 2.16 µM | 40.6 ± 1.05 µM | > 100 µM |  | > 100 µM | 15.2 ± 0.41 µM | > 100 µM |  | 
CC(=O)Oc1ccccc1C(=O)OC1CCC2(C)C(CCC3(C)C2CC(OC(C)=O)C2C(C(C)(O)CCCC(C)(C)O)CCC23C)C1(C)C [Compound 7b, 20(R)-Dammarane-20,25-diol-12β-o-acetyl-3β-yl-2′-acetylbenzoate] | > 100 µM | 268 to 270 °C | 19.53 ± 0.19 µM | 18.4 ± 0.35 µM | > 100 µM |  | 28.4 ± 0.95 µM | 28.6 ± 0.65 µM | 22.6 ± 1.02 µM |  | 

Source: paper PMC6278399, “Synthesis and Anticancer Activity Evaluation of Hydrolyzed Derivatives of Panaxnotoginseng Saponins” (Molecules, 2018)
